Source: patent US20250352535A1, “MDM2 DEGRADERS AND USES THEREOF” (Kymera Therapeutics, Inc., priority 2022, published 2025)

Columns and labels:
RS4;11 ALL model = assay: RS4;11 ALL xenograft efficacy; format: in vivo, NOD/SCID mice; settings: for median survival: n=6 animals/group
Method: (§1) RS4;11 and MV4;11 tumors were established subcutaneously in the hind flank of NOD/SCID mice. Mice were randomized and treated with Compound A as either a single pulse dose or weekly for 3 weeks at doses matched for total AUC. MDM2 SMI DS-3032 (Milademetan) was dosed at its clinically equivalent dose and regimen of 3 days on/11 days off. Pharmacodynamic effects were assessed at mRNA level by RT-qPCR and protein level by quantitative targeted mass spectrometry and immunohistochemistry.

MV4;11 AML model = assay: MV4;11 AML xenograft efficacy; format: in vivo, NOD/SCID mice
Method: as §1

[1] = system: p53 pathway and cleaved caspase-3 (CC-3) in RS4;11 tumors; assay: IHC analysis of RS4;11 tumors; format: in vivo, NOD/SCID mice; settings: n=3/group
Method: as §1

[2] = system: p53 pathway and cleaved caspase-3 (CC-3) in MV4;11 tumors; assay: IHC analysis of MV4;11 tumors; format: in vivo, NOD/SCID mice; settings: n=3/group
Method: as §1

MOLM-13 xenograft model = assay: MOLM-13 xenograft combination study; format: in vivo
[3] = Aqueous solubility of drug substance; format: physicochemical; settings: aqueous media over pH 3 to 8, aqueous buffer, pH range between 3 to 8
Method: (§2) Compound A for injection was manufactured as a concentrated frozen solution containing 10 mg/mL of free base intended to be diluted with an intravenous (IV) infusion vehicle (normal saline, 0.9% sodium chloride, injection). […] To achieve drug concentration of 10 mg/mL, formulation development focused on identifying acceptable pharmaceutical solvents, surfactants, and pH modifiers to achieve the required solubility of Compound A.

Measured pKa = format: physicochemical; settings: free base
Method: as §2

Measured Log D = format: physicochemical; settings: free base
[4] = Solubility/stability screening in IV excipients; format: physicochemical
From the text: Initial solubility screening of Compound A focused on using different enabling excipients suitable for IV administration. The screening included surfactants, cosolvents, and pH modifiers (i.e., glacial acetic acid, and hydrochloric acid). […] As a result, the selected formulation to support the GLP toxicology study was comprised of 30% propylene glycol, 3% Solutol HS15, and 0.01 M in acetate buffer at pH 5±0.2.
The clinical formulation development was centered on using organic concentrates without water to avoid hydrolysis of Compound A. Additional solubility and stability evaluations of Compound A were conducted with different types of co-solvents and surfactants with and without butylated hydroxytoluene as antioxidant.

[5] = system: panel of solid and hematological tumor cell lines; assay: Cell growth inhibition across tumor cell line panel; format: cell-based; settings: versus MDM2 small molecule inhibitors (SMIs)
Method: (§3) All cell lines were cultured according to recommended procedures unless otherwise noted. For growth inhibition assays, cells were treated with compounds for indicated time points. Viability was assessed using Promega® CellTiter-Glo® assay, and apoptosis was assessed using Promega® Caspase-Glo® 3/7 assay. Cell cycle arrest and/or apoptosis in response to single agent or combination treatment was assessed using flow cytometry analysis on cells treated for 24h.

[6] = system: acute lymphoblastic leukemia (ALL) cell line RS4;11; assay: MDM2/p53 pathway and apoptosis in RS4;11 cells; format: cell-based
MOLM-13 cell line = assay: Combination apoptosis and cell killing in MOLM-13; format: cell-based; settings: combination with venetoclax and midostaurin
Method: as §3

[7] = system: multiple heme indications (AML, T cell lymphomas, mantle cell lymphoma, DLBCL); assay: In vitro activity across heme indications; format: cell-based; settings: mantle cell lymphoma and DLBCL most sensitive
Method: as §3

[8] = system: CTG-2227 AML patient-derived xenograft (PDX) model; assay: AML PDX model CTG-2227; format: in vivo, mice; settings: 1 mg/kg, Q3W, IV
Method: (§4) AML patient cells from leukapheresis were intravenously (IV) injected and established in immunocompromised host strain mice. Surrogate animals were used to determine the level of engraftment targeting a threshold of ˜20% huCD45+ cells in BM. Mice were randomized on study and treatment was initiated. Vehicle and Compound A, 1 mg/kg were administered IV, every three weeks for six weeks (total of two doses of Compound A). At study end, whole blood, bone marrow and spleen were assessed by flow cytometry.

CTG-2240 AML PDX model = assay: AML PDX model CTG-2240; format: in vivo, mice; settings: 1 mg/kg, Q3W, IV
Method: as §4

CTG-2700 AML PDX model = assay: AML PDX model CTG-2700; format: in vivo, mice; settings: 1 mg/kg, Q3W, IV
Method: as §4

[9] = system: hCD45+ cells in bone marrow and AML blasts; assay: Flow cytometry of AML PDX models; format: in vivo, mice; settings: 1 mg/kg, Q3W
Method: as §4

[10] = system: OCI-LY10 p53^WT ABC-subtype DLBCL xenograft model; assay: OCI-LY10 DLBCL xenograft; format: in vivo
[11] = system: TMD8 p53^MUT ABC-subtype DLBCL xenograft model; assay: TMD8 DLBCL xenograft; format: in vivo
MDM2 = target: T1, MDM2 (Homo sapiens, UniProt Q00987); assay: Targeted proteomic analysis of RS4;11 tumors: MDM2; format: in vivo, NOD/SCID mice; settings: one hour post dosing
T1 construct: RS4;11 and MV4;11 tumors were established subcutaneously in the hind flank of NOD/SCID mice; endogenous in cells; host or cells: RS4;11 xenograft tumors in NOD/SCID mice
Method: as §1

[12] = system: p53 pathway (p53, p21, PHLDA3); assay: Targeted proteomic analysis of RS4;11 tumors: p53 pathway biomarkers; format: in vivo, NOD/SCID mice
Method: as §1

[13] = system: apoptotic gene BBC3 in RS4;11 tumors; assay: qPCR analysis of RS4;11 tumors; format: in vivo, NOD/SCID mice
Method: as §1

T1 sequence (Q00987 whole entry): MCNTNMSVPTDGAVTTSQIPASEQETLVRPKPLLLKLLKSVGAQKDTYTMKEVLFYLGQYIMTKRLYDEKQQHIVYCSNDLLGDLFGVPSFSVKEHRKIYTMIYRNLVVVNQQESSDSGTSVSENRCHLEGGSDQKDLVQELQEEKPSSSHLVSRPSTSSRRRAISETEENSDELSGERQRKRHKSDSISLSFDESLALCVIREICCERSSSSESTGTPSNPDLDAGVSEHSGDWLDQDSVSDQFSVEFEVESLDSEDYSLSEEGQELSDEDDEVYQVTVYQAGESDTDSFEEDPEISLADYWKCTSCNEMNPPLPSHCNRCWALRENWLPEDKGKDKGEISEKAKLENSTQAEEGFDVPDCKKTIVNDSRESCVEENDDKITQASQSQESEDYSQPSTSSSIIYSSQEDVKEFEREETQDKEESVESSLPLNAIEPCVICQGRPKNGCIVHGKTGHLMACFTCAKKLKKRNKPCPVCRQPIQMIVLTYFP

CC1(C)CCC2(CC1)N[C@@H](C(=O)N[C@@H]1CC[C@@H](C(N)=O)OC1)[C@H](c1ccnc(Cl)c1F)[C@]21C(=O)Nc2cc(Cl)ccc21 [DS-3032, Milademetan, reference compound]
median survival (RS4;11 ALL model; clinically equivalent dosing regimen (3 days on/11 days off)): 12 days | complete responses (MV4;11 AML model; clinically equivalent dose and regimen, n=6 animals/group): No complete responses | induction of CC-3 (IHC) ([1]; treatment with the SMI): not observed | induction of CC-3 (IHC) ([2]; similar to the lower weekly dosing regimen of Compound A): modest

Nc1ccn([C@@H]2O[C@H](CO)[C@@H](O)[C@@H]2O)c(=O)n1 [cytarabine]
anti-tumor activity (MOLM-13 xenograft model; combination of cytarabine and venetoclax): no significant anti-tumor activity | anti-tumor activity (MOLM-13 xenograft model; cytarabine alone): no significant anti-tumor activity

Cn1c(=O)n(C2CCC(=O)NC2=O)c2ccc(C3CCN(C(=O)[C@H]4CC[C@H](NC(=O)[C@@H]5NC6(CCCCC6)[C@@]6(C(=O)Nc7cc(Cl)ccc76)[C@H]5c5cccc(Cl)c5F)CC4)CC3)cc21 (stereo partly drawn) [Compound A, (3′R,4′S,5′R)-6″-chloro-4′-(3-chloro-2-fluorophenyl)-N-((1R,4R)-4-(4-(1-(2,6-dioxopiperidin-3-yl)-3-methyl-2-oxo-2,3-dihydro-1H-benzo[d]imidazol-5-yl)piperidine-1-carbonyl)cyclohexyl)-2″-oxodispiro[cyclohexane-1,2′-pyrrolidine-3′,3″-indoline]-5′-carboxamide]
solubility [3]: < 10 µg/mL | pKa (Measured pKa): 5 | logD (Measured Log D): > 3.7 | solubility and stability ([4]; combination of polyethylene glycol 400, ethanol, polysorbate 80 and butylated hydroxytoluene, 10 mg/mL): sufficient solubility and stability | solubility ([4]; formulations containing propylene glycol, polyethylene glycol 400, Solutol HS15 and polysorbate 80 at low pH): significantly enhanced | cell growth inhibition compared to SMIs [5]: > 200 fold | effect on p53-dependent upregulation of MDM2 protein levels ([6]; compared with reversible SMIs): can overcome the p53-dependent upregulation of MDM2 protein levels | apoptosis in washout experiments ([6]; pulsed dose, mediated through p53 target genes): can lead to apoptosis | p53 stabilization ([6]; short 2 hour exposures, versus SMIs): more potently stabilize p53 than SMIs | induction of apoptosis and cell killing (MOLM-13 cell line): enhances induction of apoptosis and cell killing | in vitro activity [7]: active across multiple heme indications | tumor response [8]: tumor regression | tumor response (CTG-2240 AML PDX model): partial responses | tumor response (CTG-2700 AML PDX model): partial responses | hCD45+ cells in bone marrow and AML blasts [9]: significantly reduces | anti-tumor activity (MOLM-13 xenograft model; single dose of Compound A in combination with daily dosing of venetoclax): sustained tumor regression | activity in xenograft model [10]: highly active | highly active in xenograft model [11]: not | tumor response (RS4;11 ALL model; exposure-matched weekly dosing): tumor stasis | plasma concentration required for tumor regression (RS4;11 ALL model; maintained for 12 to 22 hours): above 0.01 uM | median survival (RS4;11 ALL model; single dose at 3 mg/kg): 50 days | tumor response (RS4;11 ALL model; single doses): tumor regression | complete responses (MV4;11 AML model; single dose at 3 mg/kg): 5 of 6 | tumor-free on study (MV4;11 AML model; single dose at 3 mg/kg, 80 days post dosing): 4 of 6 | degradation of MDM2 in tumors (MDM2): robust degradation | proteomics biomarkers p53, p21 (cell cycle arrest marker) and PHLDA3 (apoptotic marker) [12]: upregulation | activation of the p53 pathway and induction of CC-3 (IHC) ([1]; single dose versus exposure-matched weekly dosing): more robust activation of the p53 pathway and induction of cleaved caspase-3 (CC-3) | robust activation of the p53 pathway and induction of CC-3 (IHC) ([2]; exposure-matched weekly dosing): not | activation of the p53 pathway and induction of CC-3 (IHC) ([2]; single dose): robust activation of the p53 pathway and induction of cleaved caspase-3 (CC-3) | plasma concentration required for induction of the apoptotic gene BBC3 ([13]; RS4;11 tumors): above 0.02 uM | increase in apoptotic markers (qPCR) ([13]; exposure-matched weekly dosing, n=3/group): only a moderate increase | induction of the apoptotic gene BBC3 (qPCR) ([13]; single doses that lead to tumor regression, n=3/group): robust induction
